Entries after “also recorded” stand apart in the source; their conditions may differ.
Key:
[1] = system: human macrophages; assay: sIL-15Rα secretion by human macrophages cultured with IFX, etanercept, GM-6001; format: cell-based; settings: for sIL-15Rα secretion: human macrophages, 8 h; for effect on sIL-15Rα secretion by macrophages: versus macrophages cultured without the agent
Method: (§1) The quantification of sIL-15Rα and IL-15 was determined as previously described (Mortier et al. J Immunol 2004; 173:1681-8). Sandwich RIAs were set up in which the goat anti-human IL-15Rα Ab AF247 or the mouse anti-human IL-15 Mab247 (R&D) was used as capture Ab and radio-iodinated anti-human IL-15Rα Ab M161 (GenMab; Copenhagen, Denmark) or radio-iodinated mouse anti human IL-15 BE-29 (Diaclone: Besançon, France) was used as tracer. A purified recombinant sIL-15Rα protein (Bernard et al. J Biol Chem 2004; 279:24313-22) and recombinant IL-15 (Peprotech) were used as standards. Capture Abs were coated (5 μg/mL; 50 μL/well) to high-adsorption Nunc maxisorp plates (Fisher Bioblock Scientific, Illkirch, France). Wells were saturated with PBS-BSA 0.5% for 15 min and samples (50 μL/well) were incubated for 1 h at 4° C. The M161 or BE-29 mAbs were iodinated using the iodogen method and then added (1 nM, 50 μL/well) for 1 h at 4° C. Supernatants of each well were collected and the wells washed twice with PBS. The radioactivity associated to the wells (bound fraction) and contained in the supernatants and washes (unbound fraction) were determined.
Human monocytes were isolated from blood samples of healthy donors. PBMC were collected after Ficoll-Hypaque density centrifugation, resuspended at 7×10^6 cells/mL and allowed to adhere in culture flasks (RPMI 1640 supplemented with L-glutamine, streptomycin, penicillin, 10% FCS) for 1 h 30 at 37° C. Nonadherent cells were removed and adherent cells were washed five times with PBS. Monocytes were further differentiated for 5 days in the same medium supplemented with GM-CSF (100 ng/mL). […] After incubation, supernatants were obtained by centrifugation.

[2] = system: patients with active CD; assay: Clinical response and CDAI in active CD patients treated with IFX; format: in vivo, human
Method: Clinical response for patients treated for perineal disease was assessed by the disappearance of draining fistulas. Blood samples were taken before each infusion and were centrifuged and stored at −80° C. Blood samples were also collected in 37 healthy volunteers. Forty patients with active CD were included in the study (12 males, 28 females, mean age 37.8 years). According to the Montreal classification, the disease was predominantly located into the colon (L2) or the ileocolon (L3) in 62.5 and 32.5% respectively and the disease was mostly non-stricturing and non-penetrating (B1). […] Six patients were treated by a combination of steroids and immunosuppressors, 3 patients received only steroids, 30 only immunosuppressors. Treatments were not modified except steroids which were always stopped between the first and the third infusion. There were no clinical and demographic differences between patients who experienced a response or not to IFX.

[3] = system: TNFα; assay: Serum TNFα of CD patients before/after IFX (WEHI 164 XTT bio-assay); format: in vivo, human
Method: TNFα concentrations were measured in the serum of 43 patients (33 responder patients, 10 non-responders). Quantification TNFα was performed by the XTT method using the murine cell line WEHI 164 (ATCC N^o CRL1751) (Espevik et al. J Immunol Methods 1986; 95:99-105). Cells were seeded in 96-well plates (3×10^4 cells/50 μL/well) and grown at 37° C. in RPMI 1640 supplemented with […] of glutamine, 10% heat-inactivated FCS, LiCl and actinomycin D. Sera from CD patients and healthy volunteers were serially diluted, added to wells and a purified recombinant TNFα (R&D) was used as standard. After 20 h of culture, 50 μL/well of XTT and electron coupling reagent was added and cell survival was determined by measuring the optical density at 450 nm. The sensitivity of the assay was 0.10 pg/mL. The TNFα upper normal limit was calculated by the mean+2 SD of the values obtained in the healthy volunteers.

[4] = system: IL-15; assay: Serum IL-15 of CD patients before/after IFX (RIA); format: in vivo, human
Method: as §1
The upper normal value of IL-15 (6.1 pM) was calculated by the mean+2 SD of the values measured in healthy volunteers.

[5] = system: sIL-15Rα; assay: Serum sIL-15Rα of CD patients before/after IFX (RIA); format: in vivo, human; settings: responder patients
Method: as §1

[6] = system: soluble and cell-surface TNFα; settings: cited from earlier work
soluble and cell-surface TNFα, sequence (P01375 77-233 limits assumed): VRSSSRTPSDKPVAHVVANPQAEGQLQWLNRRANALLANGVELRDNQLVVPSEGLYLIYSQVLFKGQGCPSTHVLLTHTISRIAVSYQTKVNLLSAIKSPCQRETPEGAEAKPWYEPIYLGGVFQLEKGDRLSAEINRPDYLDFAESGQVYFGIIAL

[7] = system: CD; settings: in vivo; cited from earlier work
[8] = experiment with GM-6001 0.2 nM, IFX 0.01 μg/mL, control 1.4±0.9 pM
[9] = 0.01 μg/mL IFX or etanercept, cells without IFX 2.0±0.6 pM
[10] = according to TNF and CRP levels and CDAI, 40 patients, 5 treated twice (45 courses)

Compound | inducing effect of IFX on sIL-15Rα secretion ([1]; GM-6001 added with IFX) | basal sIL-15Rα secretion ([1]; GM-6001 alone versus control cells) | sIL-15Rα secretion [1, 8] [pM] | sIL-15Rα secretion [1, 9] [pM] | effect on sIL-15Rα secretion by macrophages [1] | patients classified as non-responders to IFX [2, 10] [patients] | patients classified as responders to IFX [2, 10] [patients] | patients with mucosal healing ([2]; three biopsied CD patients, all with clinical responses) | non-responder patients in whom TNF remained above the control value ([3]; week 6, 9/10) [%] | responder patients with individual TNFα values dropping to control ranges ([3]; week 6, 20/33) [%] | responder patients in whom TNFα decreased ([3]; week 6, 31/33) [%] | median IL-15 levels after IFX ([4]; non-responder patients, serum) | patients in whom IL-15 was undetectable after IFX ([4]; responder patients, 15/35, before IFX 26% (9/35)) [%] | patients in whom IL-15 dropped below the control value ([4]; responder patients, 29/35, after IFX) [%] | increase of the proportion of patients with detectable sIL-15Rα after IFX [5] [%] | binding to soluble and cell-surface TNFα [6] | efficacy in CD [7]
CNC(=O)[C@H](Cc1c[nH]c2ccccc12)NC(=O)[C@@H](CC(=O)NO)CC(C)C [GM-6001] | completely inhibited | not modified; also recorded: did not affect | 4.5 ± 3.0 |  |  |  |  |  |  |  |  |  |  |  |  |  | 
IFX: anti-TNFα monoclonal antibody, a mouse-human chimeric whole antibody (Remicade; Centocor) |  |  | 22.4 ± 2.0 | 18.0 ± 1.2 | increased significantly; also recorded: induced; also recorded: markedly increased | 10 | 35 | two | 90 | 61 | 94 | not modified | 43 | 83 | 38 | high affinity and specificity | 
etanercept |  |  |  | 6.3 ± 0.9 | did not significantly affect; also recorded: did not induce |  |  |  |  |  |  |  |  |  |  |  | inefficient in CD; also recorded: poor efficacy

From patent US20120058110A1, “Method for Predicting the Responsiveness to an Anti-TNF Alpha Antibody Treatment” (INSERM (INSTITUT NATIONAL DE LA SANTE ET DE LA RECHERCHE …, priority 2009, published 2012)
